Data taken from patent US20090131524A1, “SIALIC ACID ABC TRANSPORTERS IN PROKARYOTES THERAPEUTIC TARGETS” (BUCK INSTITUTE, priority 2005, published 2009).

Tested on: H. ducreyi
Assay: growth of H. ducreyi in the presence of sialic acid
Format: cell-based, Haemophilus ducreyi
Procedure: H. ducreyi strains were cultured on chocolate agar plates at 35° C. in a 5% CO2 atmosphere as previously described (42). Chocolate agar was supplemented with 1 mM NeuAc (Calbiochem, La Jolla, Calif.) or kanamycin at 20 μg/ml when appropriate. E. coli strains were grown on Luria-Bertani (LB) plates or in LB broth, and were supplemented with kanamycin when appropriate.
In this and previous studies, H. ducreyi were grown on plates containing high levels of sialic acid (22, 50). […] To more quantitatively test whether the presence of high levels of sialic acid affected the growth rate of H. ducreyi, growth curves of H. ducreyi in low (˜0.5 μM, basal level in media) (50), medium (10 μM), and high (1 mM) sialic acid conditions were performed (46). […] Both E. coli and H. influenzae seem to utilize their ability to degrade sialic acid as one mechanism of controlling the intracellular levels of sialic acid (66, 68, 69). As noted above, it is currently unclear if H. ducreyi is able to degrade sialic acid. Another possible mechanism for controlling sialic acid uptake may be through the PBPs. […] Therefore, it is possible that SatA may play an important role in controlling sialic acid uptake in H. ducreyi. One mechanism of control could be that the level of satA expression may be affected by the intracellular levels of sialic acid. […]

CC(=O)N[C@H]1[C@H]([C@H](O)[C@H](O)CO)OC(O)(C(=O)O)C[C@@H]1O (some centres unmarked) [sialic acid, N-acetyl-neuraminic acid]
effect of sialic acid on growth of the bacteria on plates (grown on plates containing high levels of sialic acid): did not seem to affect the growth
growth rate (growth curves) (low (~0.5 μM, basal level in media), medium (10 μM) and high (1 mM) sialic acid): no differences in the growth rates
